Source: patent US4048431A, “Alkylated derivatives of antibiotic BM123γ” (American Cyanamid Company, priority 1975, dated 1977)

System: Escherichia coli US311
Test: in vivo protection of mice against lethal Escherichia coli US311 infection (single subcutaneous dose)
Set-up: species or system Escherichia coli US311 in Carworth Farms CF-1 mice
Details: Carworth Farms CF-1 mice, about 20 gm., infected intraperitoneally with lethal dose of E. coli US311 (10^-3 TSP dilution of 5 hour TSP blood culture)
Description: These new substances show high in vivo antibacterial activity in mice against Escherichia coli US311 when administered by a single subcutaneous dose to groups of Carworth Farms CF-1 mice, weight about 20 gm., infected intraperitoneally with a lethal dose of this bacteria in a 10^- 3 trypticase soy broth TSP dilution of a 5 hour TSP blood culture. In Table VI below is set forth the in vivo activity of typical products of this invention (prepared from the indicated carbonyl reagents) against Escherichia coli US311 in mice. The activity is expressed in terms of the ED50 or the dose in mg./kg. of body weight required to protect 50% of the mice against E. coli.

Substance | ED50 (dose required to protect 50% of the mice against E. coli) | ED50 (dose required to protect 50% of the mice against E. coli) (listed as 1-methyl-2,2-dimethylpropyl-BM123γ)
2-ethyl-2-butenyl-BM123γ | 0.18 mg./kg. of body weight | –
1,2-dimethylpropyl-BM123γ | 0.19 mg./kg. of body weight | –
1-methyl-3-phenylpropyl-BM123γ | 0.38 mg./kg. of body weight | –
2-ethyl-2-(3,4-dimethoxyphenyl)ethyl-BM123γ | 1.0 mg./kg. of body weight | –
1-ethylpentyl-BM123γ | 0.25 mg./kg. of body weight | –
1-[5-norbornene(2)]ethyl-BM123γ | < 0.12 mg./kg. of body weight | –
1-methyl-3-phenylpropen(-2-)yl-BM123γ | 0.25 mg./kg. of body weight | –
adamantyl-2-BM123γ | 0.25 mg./kg. of body weight | –
1-methyl-5-pentenyl-BM123γ | 0.18 mg./kg. of body weight | –
(2-carboxy-1-carboxymethyl)ethyl-BM123γ | 0.5 mg./kg. of body weight | –
1-carbomethoxy-2-carbomethoxyethyl-BM123γ | 0.75 mg./kg. of body weight | –
decahydro-3-methyl-2-naphthyl-BM123γ | 0.37 mg./kg. of body weight | –
2,4-dimethylcyclopentyl-BM123γ | 0.18 mg./kg. of body weight | –
2,2-dimethylbutyl-BM123γ | 0.12 mg./kg. of body weight | –
1-methyl-penten(-4-)yl-BM123γ | 0.38 mg./kg. of body weight | –
1-propylpentyl-BM123γ | 0.39 mg./kg. of body weight | –
1-methyl-4-piperidyl-BM123γ | 0.75 mg./kg. of body weight | –
cyclobutyl-BM123γ | 0.38 mg./kg. of body weight | –
1,5-dimethylhexen(-4-)yl-BM123γ | 0.06 mg./kg. of body weight | –
2-(1-cyclohexen)cyclohexyl-BM123γ | 0.19 mg./kg. of body weight | –
1-methylpentyl-BM123γ | 0.38 mg./kg. of body weight | –

Substance | ED50 (dose required to protect 50% of the mice against E. coli) | ED50 (dose required to protect 50% of the mice against E. coli) (listed as 1-methyl-2,2-dimethylpropyl-BM123γ)
1-methyl-2-(N,N-dipropylamino)-ethyl-BM123γ | 0.3 mg./kg. of body weight | –
1-methyl-2-(N,N-dimethylamino)propyl-BM123γ | 1.5 mg./kg. of body weight | –
1-methyl-2-(2-methoxyphenyl)ethyl-BM123γ | 0.7 mg./kg. of body weight | –
1-cyclohexylpropyl-BM123γ | 0.37 mg./kg. of body weight | –
2-(p-methoxyphenyl)ethyl-BM123γ | 0.18 mg./kg. of body weight | –
1-(3-pyridyl)ethyl-BM123γ | 0.75 mg./kg. of body weight | –
1-methylpropyl-BM123γ | < 0.12 mg./kg. of body weight | –
1-methyl-4-hydroxybutyl-BM123γ | 0.18 mg./kg. of body weight | –
1-methyl-2-ethylbutyl-BM123γ | 0.18 mg./kg. of body weight | –
1-methyl-2-cyclopenten(-2-)-yl-ethyl-BM123γ | < 0.12 mg./kg. of body weight | –
3,5-dimethylcyclohexyl-BM123γ | < 0.12 mg./kg. of body weight | –
1-methyltridecyl-BM123γ | 2.0 mg./kg. of body weight | –
3-tert-pentylcyclopentyl-BM123γ | 0.5 mg./kg. of body weight | –
1,2,2-trimethylpropyl-BM123γ | < 0.12 mg./kg. of body weight | 0.18 mg./kg. of body weight
1-methyl-2,2-dimethoxyethyl-BM123γ | 0.5 mg./kg. of body weight | –
1-methyl-hexen-4-yl-BM123γ | 0.18 mg./kg. of body weight | –
1-methyldecyl-BM123γ | > 2 mg./kg. of body weight | –
decahydro-1-methyl-2-naphthyl-BM123γ | 0.25 mg./kg. of body weight | –
2-phenylethyl-BM123γ | 0.18 mg./kg. of body weight | –
1-methyl-2-(β-indolyl)ethyl-BM123γ | 0.12 mg./kg. of body weight | –
1-ethylpropyl-BM123γ | 0.12 mg./kg. of body weight | –
